Laboratory results taken from patent US12692269B2, “Therapeutic compounds” (Genentech, Inc., priority 2019, dated 2026).

Experiments:
Format in all cases: binding
[1] = target: TEAD4 TAZ (amino acids 13-57) (Homo sapiens, UniProt Q15561); assay: TEAD4-TAZ HTRF (TR-FRET) protein-protein interaction assay; conditions: for TEAD4 TAZ HTRF combined: Max % Inhibition: TEAD4, TAZ peptide; for EC50: TEAD4-TAZ HTRF, TR-FRET 665 nm/615 nm, read-out: TEAD4 TAZ HTRF combined: EC50
Method in brief: (§1)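 His-tagged TEAD YAP-binding domain (aa 217-447) pre-bound to Eu anti-His tracer, incubated with compound 30 min, then biotinylated YAP (aa 50-100) or TAZ (aa 13-57) peptide with streptavidin-XL665 added for 60 min at room temperature. TR-FRET read at 665/615 nm; IC50 or EC50 from four-parameter fit.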

[2] = target: TEAD2 TAZ (amino acids 13-57) (Homo sapiens, UniProt Q15562); assay: TEAD2-TAZ HTRF (TR-FRET) protein-protein interaction assay; conditions: for TEAD2 TAZ HTRF combined: Max % Inhibition: TEAD2, TAZ peptide; for EC50: TEAD2-TAZ HTRF, TR-FRET 665 nm/615 nm, read-out: TEAD2 TAZ HTRF combined: EC50
Chain of TEAD2 TAZ (amino acids 13-57) (Q15562 217-447): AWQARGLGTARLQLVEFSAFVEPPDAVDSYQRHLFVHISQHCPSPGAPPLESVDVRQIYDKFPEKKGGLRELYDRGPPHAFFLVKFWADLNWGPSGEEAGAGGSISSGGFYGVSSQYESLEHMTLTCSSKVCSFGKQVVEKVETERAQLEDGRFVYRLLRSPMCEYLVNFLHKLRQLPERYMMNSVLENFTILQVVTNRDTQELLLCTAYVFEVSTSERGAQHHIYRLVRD
Method in brief: as §1

[3] = target: TEAD1 YAP50-100 (Homo sapiens, UniProt P28347); assay: TEAD1-YAP HTRF (TR-FRET) protein-protein interaction assay; conditions: TEAD1, YAP peptide 50-100, HTRF; for EC50: read-out: TEAD1 YAP50-100 HTRF combined: EC50
Chain of TEAD1 YAP50-100 (P28347 167-426 limits assumed): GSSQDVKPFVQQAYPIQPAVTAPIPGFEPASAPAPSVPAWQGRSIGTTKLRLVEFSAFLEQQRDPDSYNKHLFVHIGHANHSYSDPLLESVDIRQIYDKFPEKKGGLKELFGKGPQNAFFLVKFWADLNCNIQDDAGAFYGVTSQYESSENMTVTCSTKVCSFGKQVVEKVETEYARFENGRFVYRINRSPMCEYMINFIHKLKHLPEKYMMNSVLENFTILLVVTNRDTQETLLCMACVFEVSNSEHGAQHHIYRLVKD
Method in brief: as §1

[4] = target: TEAD1 TAZ (amino acids 13-57) (Homo sapiens, UniProt P28347); assay: TEAD1-TAZ HTRF (TR-FRET) protein-protein interaction assay; conditions: for TEAD1 TAZ HTRF combined: Max % Inhibition: TEAD1, TAZ peptide; for EC50: TEAD1-TAZ HTRF, TR-FRET 665 nm/615 nm, read-out: TEAD1 TAZ HTRF combined: EC50
Chain of TEAD1 TAZ (amino acids 13-57) (P28347 167-426 limits assumed): as above
Method in brief: as §1

[5] = target: TEAD3 TAZ (amino acids 13-57) (Homo sapiens, UniProt Q99594); assay: TEAD3-TAZ HTRF (TR-FRET) protein-protein interaction assay; conditions: for TEAD3 TAZ HTRF combined: Max % Inhibition: TEAD3, TAZ peptide; for EC50: TEAD3-TAZ HTRF, TR-FRET 665 nm/615 nm, read-out: TEAD3 TAZ HTRF combined: EC50
Chain of TEAD3 TAZ (amino acids 13-57) (Q99594 173-435 limits assumed): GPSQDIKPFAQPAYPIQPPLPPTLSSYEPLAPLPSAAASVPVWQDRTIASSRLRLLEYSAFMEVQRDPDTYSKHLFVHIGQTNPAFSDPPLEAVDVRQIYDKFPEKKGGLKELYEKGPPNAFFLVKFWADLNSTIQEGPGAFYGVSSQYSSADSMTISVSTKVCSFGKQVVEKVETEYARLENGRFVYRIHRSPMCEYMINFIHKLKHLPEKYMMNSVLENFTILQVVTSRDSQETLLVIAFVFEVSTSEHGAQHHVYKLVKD
Method in brief: as §1

[6] = target: TEAD4 YAP50-100 (Homo sapiens, UniProt Q15561); assay: TEAD4-YAP HTRF (TR-FRET) protein-protein interaction assay; conditions: TEAD4, YAP peptide 50-100, HTRF; for EC50: read-out: TEAD4 YAP50-100 HTRF combined: EC50
Chain of TEAD4 YAP50-100 (Q15561 217-434 limits assumed): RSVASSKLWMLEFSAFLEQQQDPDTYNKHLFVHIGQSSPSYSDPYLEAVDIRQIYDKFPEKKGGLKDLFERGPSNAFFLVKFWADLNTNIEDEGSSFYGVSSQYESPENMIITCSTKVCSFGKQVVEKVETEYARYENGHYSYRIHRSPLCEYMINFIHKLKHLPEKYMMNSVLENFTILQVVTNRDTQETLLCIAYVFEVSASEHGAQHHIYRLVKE
Method in brief: as §1

[7] = target: TEAD3 YAP50-100 (Homo sapiens, UniProt Q99594); assay: TEAD3-YAP HTRF (TR-FRET) protein-protein interaction assay; conditions: TEAD3, YAP peptide 50-100, HTRF; for EC50: read-out: TEAD3 YAP50-100 HTRF combined: EC50
Chain of TEAD3 YAP50-100 (Q99594 173-435 limits assumed): as the sequence (Q99594 173-435 limits assumed) above
Method in brief: as §1

[8] = target: TEAD2 YAP50-100 (Homo sapiens, UniProt Q15562); assay: TEAD2-YAP HTRF (TR-FRET) protein-protein interaction assay; conditions: TEAD2, YAP peptide 50-100, HTRF; for EC50: read-out: TEAD2 YAP50-100 HTRF combined: EC50
Chain of TEAD2 YAP50-100 (Q15562 217-447): as the sequence (Q15562 217-447) above
Method in brief: as §1

Chain of TEAD4 TAZ (amino acids 13-57) (Q15561 217-434 limits assumed): as the sequence (Q15561 217-434 limits assumed) above

Structure (SMILES) | TEAD4 TAZ HTRF combined: Max % Inhibition [1] [%] | EC50 [1] [nM] | TEAD2 TAZ HTRF combined: Max % Inhibition [2] [%] | EC50 [2] [nM] | TEAD1 YAP50-100 HTRF combined: Max % Inhibition [3] [%] | EC50 [3] [nM] | TEAD1 TAZ HTRF combined: Max % Inhibition [4] [%] | EC50 [4] [nM] | TEAD3 TAZ HTRF combined: Max % Inhibition [5] [%] | EC50 [5] [nM] | TEAD4 YAP50-100 HTRF combined: Max % Inhibition [6] [%] | EC50 [6] [nM] | TEAD3 YAP50-100 HTRF combined: Max % Inhibition [7] [%] | EC50 [7] [nM] | TEAD2 YAP50-100 HTRF combined: Max % Inhibition [8] [%] | EC50 [8] [nM]
Cc1cnc(-c2nn3c(=O)cc(-c4ccc(C5CCCCC5)cc4)[nH]c3c2C(=O)N2CC(CF)C2)cn1 [Compound 26, 5-(4-Cyclohexylphenyl)-3-(3-(fluoromethyl)azetidine-1-carbonyl)-2-(5-methylpyrazin-2-yl) pyrazolo [1,5-a]pyrimidin-7(4H)-one] | 45.5 | 290 | 72.5 | 30 | 71.0 | 60 | 70.0 | 100 | 60.0 | 150 | 44.5 | 340 | 66.0 | 140 | 70.0 | 30
Cc1nccnc1-c1nn2c(=O)cc(-c3ccc(C4CCCCC4)cc3)[nH]c2c1C(=O)N1CC(CF)C1 [Compound 27, 5-(4-Cyclohexylphenyl)-3-(3-(fluoromethyl)azetidine-1-carbonyl)-2-(3-methylpyrazin-2-yl)pyrazolo[1,5-a]pyrimidin-7(4H)-one] | 53.1 | 30 | 67.9 | 10 | 75.0 | 30 | 74.5 | 50 | 64.9 | 100 | 54.1 | 30 | 74.6 | 100 | 68.6 | 10
Cc1cncc(-c2nn3c(=O)cc(-c4ccc(C5CCCCC5)cc4)[nH]c3c2C(=O)N2CC(CF)C2)n1 [Compound 28, 5-(4-Cyclohexylphenyl)-3-(3-(fluoromethyl)azetidine-1-carbonyl)-2-(6-methylpyrazin-2-yl)pyrazolo[1,5-a]pyrimidin-7(4H)-one] | 41.0 | 120 | 66.5 | 10 | 76.0 | 40 | 74.0 | 60 | 63.0 | 100 | 43.5 | 130 | 68.0 | 100 | 59.5 | 20
Cc1ccnc(-c2nn3c(=O)cc(-c4ccc(C5CCCCC5)cc4)[nH]c3c2C(=O)N2CC(CF)C2)c1C [Compound 29, 5-(4-Cyclohexylphenyl)-2-(3,4-dimethylpyridin-2-yl)-3-(3-(fluoromethyl)azetidine-1-carbonyl)pyrazolo[1,5-a]pyrimidin-7(4H)-one] | 50.5 | 20 | 70.0 | 20 | 78.0 | 60 | 71.5 | 90 | 57.5 | 170 | 54.0 | 30 | 72.5 | 180 | 70.0 | 20
Cc1c(-c2nn3c(=O)cc(-c4ccc(C5CCCCC5)cc4)[nH]c3c2C(=O)N2CC(CF)C2)ncn1C [Compound 30, 5-(4-Cyclohexylphenyl)-2-(1,5-dimethyl-1H-imidazol-4-yl)-3-(3-(fluoromethyl)azetidine-1-carbonyl)pyrazolo[1,5-a]pyrimidin-7(4H)-one] | 31.5 | 120 | 61.5 | 10 | 71.0 | 70 | 64.5 | 60 | 51.5 | 80 | 45.0 | 180 | 65.0 | 90 | 61.5 | 10
